Data reported in the NIST ThermoML archive (doi:10.1016/j.jct.2015.04.005).
Numbers after ± are expanded uncertainties.

Assay: xn = mol fraction of the nth substance listed
Settings: 102.24 kPa, Liquid; for speed of sound: Frequency=5 MHz, Single path-length method; for mass density: Vibrating tube method

CCC(=O)[O-].C[NH2+]CCO [2-hydroxy-N-methylethanaminium propionate] + O
Settings | mass density [kg/m3] | speed of sound [m/s]
298.15 K, x1 = 0.02 | 1016.8 ± 1.7 | 1628.3 ± 8.1
298.15 K, x1 = 0.0501 | 1039.1 ± 1.7 | 1746.5 ± 8
298.15 K, x1 = 0.1001 | 1056.2 ± 1.7 | 1820.9 ± 8
298.15 K, x1 = 0.101 | 1055.8 ± 1.7 | 1818.1 ± 8
298.15 K, x1 = 0.2006 | 1072.5 ± 1.7 | 1827.2 ± 8
298.15 K, x1 = 0.301 | 1072.6 ± 1.7 | 1790.1 ± 8
298.15 K, x1 = 0.3978 | 1074 ± 1.7 | 1757 ± 8
298.15 K, x1 = 0.4976 | 1072.3 ± 1.7 | 1726.2 ± 8
298.15 K, x1 = 0.5972 | 1071.9 ± 1.7 | 1721 ± 8
298.15 K, x1 = 0.8006 | 1068.7 ± 1.7 | 1684.5 ± 8
298.15 K, x1 = 1 | 1065.8 ± 1.7 | 1638.4 ± 8.1
303.15 K, x1 = 0.02 | 1013.4 ± 1.7 | 1630.6 ± 8.1
303.15 K, x1 = 0.0501 | 1036.3 ± 1.7 | 1741.6 ± 8
303.15 K, x1 = 0.1001 | 1053.4 ± 1.7 | 1810.8 ± 8
303.15 K, x1 = 0.101 | 1052.8 ± 1.7 | 1807 ± 8
303.15 K, x1 = 0.2006 | 1069.5 ± 1.7 | 1812.4 ± 8
303.15 K, x1 = 0.301 | 1069.5 ± 1.7 | 1775.9 ± 8
303.15 K, x1 = 0.3978 | 1070.9 ± 1.7 | 1742.3 ± 8
303.15 K, x1 = 0.4976 | 1069.2 ± 1.7 | 1711 ± 8
303.15 K, x1 = 0.5972 | 1068.7 ± 1.7 | 1705.5 ± 8
303.15 K, x1 = 0.8006 | 1065.4 ± 1.7 | 1668.3 ± 8
303.15 K, x1 = 1 | 1062.6 ± 1.7 | 1624.6 ± 8.1
308.15 K, x1 = 0.02 | 1010 ± 1.7 | 1632.8 ± 8
308.15 K, x1 = 0.0501 | 1033.5 ± 1.7 | 1736.7 ± 8
308.15 K, x1 = 0.1001 | 1050.7 ± 1.7 | 1800.7 ± 8
308.15 K, x1 = 0.101 | 1049.9 ± 1.7 | 1795.9 ± 8
308.15 K, x1 = 0.2006 | 1066.5 ± 1.7 | 1797.6 ± 8
308.15 K, x1 = 0.301 | 1066.4 ± 1.7 | 1761.6 ± 8
308.15 K, x1 = 0.3978 | 1067.9 ± 1.7 | 1727.6 ± 8
308.15 K, x1 = 0.4976 | 1066.1 ± 1.7 | 1695.7 ± 8
308.15 K, x1 = 0.5972 | 1065.6 ± 1.7 | 1689.9 ± 8
308.15 K, x1 = 0.8006 | 1062.2 ± 1.7 | 1652 ± 8
308.15 K, x1 = 1 | 1059.4 ± 1.7 | 1607 ± 8.1
313.15 K, x1 = 0.02 | 1006.6 ± 1.7 | 1635.1 ± 8
313.15 K, x1 = 0.0501 | 1030.6 ± 1.7 | 1731.8 ± 8
313.15 K, x1 = 0.1001 | 1047.9 ± 1.7 | 1790.6 ± 8
313.15 K, x1 = 0.101 | 1046.9 ± 1.7 | 1784.7 ± 8
313.15 K, x1 = 0.2006 | 1063.5 ± 1.7 | 1782.8 ± 8
313.15 K, x1 = 0.301 | 1063.3 ± 1.7 | 1747.4 ± 8
313.15 K, x1 = 0.3978 | 1064.8 ± 1.7 | 1712.8 ± 8
313.15 K, x1 = 0.4976 | 1063 ± 1.7 | 1680.5 ± 8
313.15 K, x1 = 0.5972 | 1062.5 ± 1.7 | 1674.4 ± 8
313.15 K, x1 = 0.8006 | 1059 ± 1.7 | 1635.7 ± 8
313.15 K, x1 = 1 | 1056.2 ± 1.7 | 1588.5 ± 8.1
318.15 K, x1 = 0.02 | 1003.2 ± 1.7 | 1637.4 ± 8
318.15 K, x1 = 0.0501 | 1027.8 ± 1.7 | 1726.9 ± 8
318.15 K, x1 = 0.1001 | 1045.2 ± 1.7 | 1780.5 ± 8
318.15 K, x1 = 0.101 | 1043.9 ± 1.7 | 1773.6 ± 8
318.15 K, x1 = 0.2006 | 1060.5 ± 1.7 | 1768 ± 8
318.15 K, x1 = 0.301 | 1060.2 ± 1.7 | 1733.1 ± 8
318.15 K, x1 = 0.3978 | 1061.8 ± 1.7 | 1698.1 ± 8
318.15 K, x1 = 0.4976 | 1059.8 ± 1.7 | 1665.2 ± 8
318.15 K, x1 = 0.5972 | 1059.4 ± 1.7 | 1658.8 ± 8
318.15 K, x1 = 0.8006 | 1055.8 ± 1.7 | 1619.5 ± 8
318.15 K, x1 = 1 | 1053 ± 1.7 | 1573.2 ± 8.1
323.15 K, x1 = 0.02 | 999.8 ± 1.7 | 1639.6 ± 8
323.15 K, x1 = 0.0501 | 1025 ± 1.7 | 1722 ± 8
323.15 K, x1 = 0.1001 | 1042.4 ± 1.7 | 1770.4 ± 8
323.15 K, x1 = 0.101 | 1040.9 ± 1.7 | 1762.5 ± 8
323.15 K, x1 = 0.2006 | 1057.5 ± 1.7 | 1753.2 ± 8
323.15 K, x1 = 0.301 | 1057.1 ± 1.7 | 1718.9 ± 8
323.15 K, x1 = 0.3978 | 1058.7 ± 1.7 | 1683.3 ± 8
323.15 K, x1 = 0.4976 | 1056.7 ± 1.7 | 1650 ± 8
323.15 K, x1 = 0.5972 | 1056.2 ± 1.7 | 1643.3 ± 8
323.15 K, x1 = 0.8006 | 1052.6 ± 1.7 | 1603.2 ± 8
323.15 K, x1 = 1 | 1049.8 ± 1.7 | 1558.3 ± 8.1
328.15 K, x1 = 0.02 | 996.4 ± 1.7 | 1641.9 ± 8
328.15 K, x1 = 0.0501 | 1022.2 ± 1.7 | 1717.1 ± 8
328.15 K, x1 = 0.1001 | 1039.7 ± 1.7 | 1760.3 ± 8
328.15 K, x1 = 0.101 | 1037.9 ± 1.7 | 1751.4 ± 8
328.15 K, x1 = 0.2006 | 1054.5 ± 1.7 | 1738.3 ± 8
328.15 K, x1 = 0.301 | 1054 ± 1.7 | 1704.6 ± 8
328.15 K, x1 = 0.3978 | 1055.6 ± 1.7 | 1668.6 ± 8
328.15 K, x1 = 0.4976 | 1053.6 ± 1.7 | 1634.8 ± 8
328.15 K, x1 = 0.5972 | 1053.1 ± 1.7 | 1627.8 ± 8
328.15 K, x1 = 0.8006 | 1049.3 ± 1.7 | 1587 ± 8
328.15 K, x1 = 1 | 1046.5 ± 1.7 | 1543.7 ± 8.1
333.15 K, x1 = 0.02 | 993 ± 1.7 | 1644.1 ± 8
333.15 K, x1 = 0.0501 | 1019.4 ± 1.7 | 1712.2 ± 8
333.15 K, x1 = 0.1001 | 1036.9 ± 1.7 | 1750.3 ± 8
333.15 K, x1 = 0.101 | 1035 ± 1.7 | 1740.3 ± 8
333.15 K, x1 = 0.2006 | 1051.5 ± 1.7 | 1723.5 ± 8
333.15 K, x1 = 0.301 | 1051 ± 1.7 | 1690.4 ± 8
333.15 K, x1 = 0.3978 | 1052.6 ± 1.7 | 1653.9 ± 8
333.15 K, x1 = 0.4976 | 1050.5 ± 1.7 | 1619.5 ± 8
333.15 K, x1 = 0.5972 | 1050 ± 1.7 | 1612.2 ± 8
333.15 K, x1 = 0.8006 | 1046.1 ± 1.7 | 1570.7 ± 8
333.15 K, x1 = 1 | 1043.2 ± 1.7 | 1527 ± 8.1
